ChEMBL document CHEMBL1201862, “PubChem BioAssay data set” (2004)
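96-well plates; 48 h exposure; 5 concentrations. Endpoints by linear interpolation between flanking doses. Not reached: highest tested concentration assigned. The concentration for 50% growth inhibition is given as GI50.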 The source made the active and inactive calls. Cut-off read from the data, not from the text of the source: active = GI50 up to about 1.1 µM and inactive = higher.

Legend:
Assay in all cases: inhibition of tumour cell growth, NCI panel, 48 h
[1] = tested on: MDA-N
[2] = tested on: HOP-62
[3] = tested on: SNB-19
[4] = tested on: Malme-3M
[5] = tested on: OVCAR-3
[6] = tested on: NCI-H522
[7] = tested on: A498
[8] = tested on: HCT-15
[9] = tested on: 786-0
[10] = tested on: RXF 393
[11] = tested on: OVCAR-5
[12] = tested on: NCI-H23
[13] = tested on: SF-268
[14] = tested on: UO-31
[15] = tested on: RPMI-8226
[16] = tested on: HL-60
[17] = tested on: MCF7
[18] = tested on: BT-549
[19] = tested on: LOX IMVI

| SMILES | GI50 [1] | GI50 [2] | GI50 [3] | GI50 [4] | GI50 [5] | GI50 [6] | GI50 [7] | GI50 [8] [µM] | GI50 [9] | GI50 [10] | GI50 [11] | GI50 [12] | GI50 [13] | GI50 [14] | GI50 [15] | GI50 [16] | GI50 [17] | GI50 [18] | GI50 [19] |
| --- | --- | --- | --- | --- | --- | --- | --- | --- | --- | --- | --- | --- | --- | --- | --- | --- | --- | --- | --- |
| Cc1c2c(c(C)n1-c1ccccc1)C(=O)N(CCSC(=N)N)C2=O | > 100 µM (inactive) | 83.6 µM (inactive) | > 100 µM (inactive) | > 100 µM (inactive) | > 100 µM (inactive) | 35.7 µM (inactive) | 32.4 µM (inactive) | > 100 | > 100 µM (inactive) | 40.2 µM (inactive) | > 100 µM (inactive) | 4.85 µM (inactive) | > 100 µM (inactive) | > 100 µM (inactive) | > 100 µM (inactive) | > 100 µM (inactive) | 32.1 µM (inactive) | > 100 µM (inactive) |  |
| CC(C)C1(NC(=O)C2CC3c4cccc5[nH]cc(c45)CC3N(C)C2)OC2(O)C3CCCN3C(=O)C(Cc3ccccc3)N2C1=O (configuration not stated) | 22.3 µM (inactive) | > 100 µM (inactive) | 57.7 µM (inactive) |  | 16.2 µM (inactive) | 38.9 µM (inactive) |  | 23.6 | 36.7 µM (inactive) |  | > 100 µM (inactive) | 30.5 µM (inactive) | > 100 µM (inactive) | 12.9 µM (inactive) | 4.44 µM (inactive) | 6.62 µM (inactive) | 13.6 µM (inactive) | 55 µM (inactive) | 12.1 µM (inactive) |
| COC(=O)c1ccc(C)cc1C1CN=NC12Cc1cccc(C)c1C2=O (configuration not stated) | 26.2 µM (inactive) | 71.3 µM (inactive) | > 100 µM (inactive) | 27.8 µM (inactive) | 32.8 µM (inactive) | 28.1 µM (inactive) |  | 47.2 | > 100 µM (inactive) | > 100 µM (inactive) | > 100 µM (inactive) | 64.9 µM (inactive) | 57.1 µM (inactive) | 26.7 µM (inactive) | 20.8 µM (inactive) | 20.2 µM (inactive) | 91.2 µM (inactive) | 25.6 µM (inactive) | 28.6 µM (inactive) |
| Cc1ccc2nc(Cl)c(/C=N/N3C(=O)/C(=C/c4cccc([N+](=O)[O-])c4)N=C3c3ccccc3)cc2c1 | 20.4 µM (inactive) | 50.2 µM (inactive) | > 100 µM (inactive) |  | 30.5 µM (inactive) |  | 7.71 µM (inactive) | 42.2 | > 100 µM (inactive) |  | > 100 µM (inactive) |  | 97.1 µM (inactive) | 38 µM (inactive) | 31.3 µM (inactive) | 39.2 µM (inactive) | 20.3 µM (inactive) | > 100 µM (inactive) | 87.1 µM (inactive) |
| CCC(C)C(=O)OCC(=O)c1ccc(-c2ccccc2)cc1 (configuration not stated) | 45.7 µM (inactive) | > 100 µM (inactive) | 80.7 µM (inactive) | 29.1 µM (inactive) | 37.8 µM (inactive) | 22.8 µM (inactive) | 32.7 µM (inactive) | 18.1 | > 100 µM (inactive) |  | > 100 µM (inactive) | 63.7 µM (inactive) | 41.4 µM (inactive) | > 100 µM (inactive) | 24.5 µM (inactive) | > 100 µM (inactive) | 44.8 µM (inactive) | 45.4 µM (inactive) | 34.7 µM (inactive) |
| CCn1c(-c2ccccc2)nc2c1C(=O)c1ccccc1C2=O | 18.8 µM (inactive) | 42.5 µM (inactive) | 32.8 µM (inactive) | 8.81 µM (inactive) | 5.89 µM (inactive) | 15.2 µM (inactive) |  | 17.1 | 84.9 µM (inactive) | 15.6 µM (inactive) | 32.9 µM (inactive) | 21.8 µM (inactive) |  |  | 36.6 µM (inactive) | 18 µM (inactive) | 25.5 µM (inactive) | 24.9 µM (inactive) |  |
| CCOc1cc(CCNC)c2c(ccc3ccc(OC)c(O)c32)c1OC | 2.49 µM (inactive) | 20.3 µM (inactive) | 16.1 µM (inactive) | 6.92 µM (inactive) | 14.5 µM (inactive) | 5.14 µM (inactive) |  | 17.5 | 17.5 µM (inactive) | 15.7 µM (inactive) | 14.5 µM (inactive) | 11.7 µM (inactive) | 18 µM (inactive) | 15.6 µM (inactive) | 12.4 µM (inactive) | 15 µM (inactive) | 8.47 µM (inactive) | 16.3 µM (inactive) | 11.5 µM (inactive) |
| O=C(O)C[C@@H]1[C@@H](O)[C@@H](O)CN2C(=O)c3ccccc3[C@H]12 | > 100 µM (inactive) | > 100 µM (inactive) | > 100 µM (inactive) | > 100 µM (inactive) |  | > 100 µM (inactive) | > 100 µM (inactive) | > 100 | > 100 µM (inactive) | > 100 µM (inactive) | > 100 µM (inactive) | > 100 µM (inactive) | > 100 µM (inactive) | > 100 µM (inactive) | > 100 µM (inactive) |  | > 100 µM (inactive) | > 100 µM (inactive) | > 100 µM (inactive) |
| COc1cccc(N2N=C3c4ccccc4-n4c(nc5ccccc54)C3C2N)c1 (configuration not stated) | > 100 µM (inactive) | > 100 µM (inactive) | > 100 µM (inactive) | 66.1 µM (inactive) | > 100 µM (inactive) | > 100 µM (inactive) | > 100 µM (inactive) | > 100 | > 100 µM (inactive) |  | 47.2 µM (inactive) | > 100 µM (inactive) | > 100 µM (inactive) | > 100 µM (inactive) | > 100 µM (inactive) | > 100 µM (inactive) | 79.6 µM (inactive) | > 100 µM (inactive) | > 100 µM (inactive) |
| O=C(/C=C/c1cccs1)c1cccc(C(=O)/C=C/c2cccs2)n1 | 28.2 µM (inactive) | 25.4 µM (inactive) | 19.3 µM (inactive) | > 100 µM (inactive) | 42.2 µM (inactive) | 22.1 µM (inactive) |  | 24 | 6.81 µM (inactive) | > 48.9 µM (inactive) | > 73.1 µM (inactive) | 31 µM (inactive) | 21.5 µM (inactive) | 21.3 µM (inactive) | 2.97 µM (inactive) | 7.41 µM (inactive) | 1.25 µM (inactive) | 42.8 µM (inactive) | 2.05 µM (inactive) |
| CCOC(=O)NN(C(=O)OCC)c1ccc(/N=N/c2ccc(OC)cc2)n1C | 19.7 µM (inactive) | 26.9 µM (inactive) |  | 25.2 µM (inactive) | 18.5 µM (inactive) | 18 µM (inactive) | 25.3 µM (inactive) | 12.5 | 32.2 µM (inactive) | 32.4 µM (inactive) | 32.7 µM (inactive) | 32.6 µM (inactive) |  | 0.653 µM (active) | 19.9 µM (inactive) | 19.2 µM (inactive) | 6 µM (inactive) |  | 21.5 µM (inactive) |
| CO[C@]1(c2ccc([N+](=O)[O-])cc2)Oc2ccccc2C(=O)[C@@]1(Nc1ccc(C=O)cc1)OC | > 10 µM (inactive) | > 10 µM (inactive) | > 10 µM (inactive) | > 10 µM (inactive) | > 10 µM (inactive) |  | > 10 µM (inactive) | > 10 | > 10 µM (inactive) | > 10 µM (inactive) | > 10 µM (inactive) | > 10 µM (inactive) | > 10 µM (inactive) | > 10 µM (inactive) | > 10 µM (inactive) | > 10 µM (inactive) | > 10 µM (inactive) | > 10 µM (inactive) | > 10 µM (inactive) |
| NCCCNCCCCN1CC1 | 3.63 µM (inactive) | 2.72 µM (inactive) | 6.55 µM (inactive) | 4.57 µM (inactive) | 1.6 µM (inactive) | 2.81 µM (inactive) |  | 8.41 | 0.713 µM (active) | 0.705 µM (active) | 12 µM (inactive) | 6.7 µM (inactive) | 1.99 µM (inactive) | 7.18 µM (inactive) | 7.01 µM (inactive) | 0.601 µM (active) | 28.9 µM (inactive) | 5.4 µM (inactive) | 0.637 µM (active) |
| O=C(O)Cc1ccc(-n2nnc3c(=O)[nH][nH]c(=O)c32)cc1 | > 100 µM (inactive) | > 100 µM (inactive) | > 100 µM (inactive) | > 100 µM (inactive) | > 100 µM (inactive) |  |  | > 100 | > 100 µM (inactive) |  | > 100 µM (inactive) | > 100 µM (inactive) |  | > 100 µM (inactive) | > 100 µM (inactive) | > 100 µM (inactive) | > 100 µM (inactive) | > 100 µM (inactive) | > 100 µM (inactive) |
| COc1cc(C(=O)OC2CC(C)=CC[C@@]3(C)CC[C@](O)(C(C)C)C23)ccc1O (some centres not stated) | 18.3 µM (inactive) | 17.2 µM (inactive) | 19.2 µM (inactive) | 18.6 µM (inactive) | 18.5 µM (inactive) | 14.3 µM (inactive) | 18.9 µM (inactive) | 18.6 | 17.3 µM (inactive) | 18.4 µM (inactive) | 18 µM (inactive) | 17.8 µM (inactive) | 19.5 µM (inactive) | 16.4 µM (inactive) | 25.6 µM (inactive) | 31.6 µM (inactive) | 12.4 µM (inactive) |  | 16.2 µM (inactive) |
| N#Cc1nc(-c2cc([N+](=O)[O-])cc([N+](=O)[O-])c2)oc1N | > 10 µM (inactive) | > 10 µM (inactive) | > 10 µM (inactive) | > 10 µM (inactive) |  | > 10 µM (inactive) |  | > 10 | > 10 µM (inactive) | > 10 µM (inactive) |  | > 10 µM (inactive) | > 10 µM (inactive) | 8.93 µM (inactive) | > 10 µM (inactive) | > 10 µM (inactive) | > 10 µM (inactive) | > 10 µM (inactive) | > 10 µM (inactive) |
